Target: T1, Epidermal growth factor receptor (EGFR) (Homo sapiens, UniProt P00533)
T1 construct: extracellular domain (ECD), recombinant human
Experiment: MST with recombinant EGFR ECD (also BIAcore SPR, Kd […]; CETSA in A549 and H1975)
Format: binding

T1 sequence (P00533 25-645 limits assumed): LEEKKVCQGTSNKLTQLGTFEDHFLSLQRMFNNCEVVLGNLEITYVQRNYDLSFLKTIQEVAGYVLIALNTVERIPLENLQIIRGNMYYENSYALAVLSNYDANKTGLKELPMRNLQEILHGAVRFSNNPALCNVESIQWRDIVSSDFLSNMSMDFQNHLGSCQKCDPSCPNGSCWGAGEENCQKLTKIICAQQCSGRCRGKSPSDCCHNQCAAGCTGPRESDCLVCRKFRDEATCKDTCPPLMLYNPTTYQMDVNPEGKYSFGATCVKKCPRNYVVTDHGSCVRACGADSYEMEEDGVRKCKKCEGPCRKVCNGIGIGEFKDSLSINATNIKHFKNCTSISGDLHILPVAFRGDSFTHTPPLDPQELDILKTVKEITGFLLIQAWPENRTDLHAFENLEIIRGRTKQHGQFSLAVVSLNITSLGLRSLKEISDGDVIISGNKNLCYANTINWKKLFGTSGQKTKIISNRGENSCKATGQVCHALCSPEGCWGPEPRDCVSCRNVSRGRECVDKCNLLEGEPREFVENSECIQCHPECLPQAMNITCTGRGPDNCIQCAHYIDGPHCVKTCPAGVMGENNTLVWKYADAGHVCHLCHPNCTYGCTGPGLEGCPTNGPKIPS

SMILES: C=C(C)[C@@H]1CC[C@]2(C(=O)N3CCC(N4CCCCC4)CC3)CC[C@]3(C)[C@H](CC[C@@H]4[C@@]5(C)CC[C@H](O)[C@@](C)(CO)[C@@H]5CC[C@]43C)[C@@H]12 [compound 187, DPBA]
- Kd: 38.4 ± 1.75 µM
